The test system of data set [1] is E. coli. The experiment in a line: Susceptibility measurement by type of antibiotic with capacitive biosensor (E. coli-specific aptamer). Format: cell-based. The settings on record: antibiotic 100 ng/ml, 37° C., 6 hours, FIG. 8. How it is done: The susceptibility inspection for antibiotics was performed, after identifying an E. coli using the capacitive biosensor manufactured by treating E. coli-specific aptamer in Experimental Example 2 on the substrate manufactured according to Manufacturing Example 2.
PBS was treated as a control, each treatment was treated with cephalothin, Gentamicin, Ciprofloxacin and chloramphenicol at a concentration of 100 ng/ml, the change in capacitance with time was measured for 6 hours in an incubator at 37° C.

Data set [2] concerns E. coli. Briefly: Minimum inhibitory concentration by real-time capacitance of capacitive biosensor. The data set is classed as cell-based. The settings on record: E. coli 10^5 cells/ml grown 2 hours at 37° C. How it is done:
To determine the minimum inhibitory concentration of an antibiotic, E. coli (10^5 cells/ml) was treated with a capacitive biosensor and grown at 37° C. for 2 hours, and then treated with antibiotic ceftriaxone (MIC: ˜ 30 ng/ml) at concentrations of 100, 80, 60, 40 and 20 ng/ml, respectively. The degree of susceptibility was determined based on the results of the capacitance monitored in real time, and the minimum inhibitory concentration thereof was confirmed.
In addition, E. coli (10^5 cells/ml) was treated with a capacitive biosensor and grown at 37° C. for 2 hours, and then treated with antibiotic Gentamicin (MIC: ˜ […]) 50, 5, 0.5, 0.05, and 0.005 μg/ml, respectively. The degree of susceptibility was determined based on the results of the capacitance monitored in real time, and the minimum inhibitory concentration thereof was confirmed.

The subject of data set [3] is E. coli. The settings on record: reference value given in the method; cited from earlier work.
Data set [4] has as its system Staphylococcus aureus. The settings on record: reference value given in the method; cited from earlier work.
Data set [5] concerns Tetracycline-resistant E. coli. The experiment in a line: Susceptibility of antibiotic-resistant bacterium by real-time capacitance. The data set is classed as cell-based. As to conditions: Tetracycline 2 μg/ml, Gentamicin 1 μg/ml, Ampicillin 8 μg/ml; FIG. 11 (a). On the procedure:
(§1) In addition, Tetracycline-resistant E. coli or Ampicillin-resistant E. coli (10^5 cells/ml) was treated with a capacitive biosensor and grown at 37° C. for 2 hours, and was then treated with Tetracycline at a concentration of 2 μg/ml, Gentamicin at a concentration of 1 μg/ml, and Ampicillin at a concentration of 8 μg/ml, respectively. The degree of susceptibility was determined based on the results of the capacitance monitored in real time.

For data set [6], the system named is Ampicillin-resistant E. coli. Described as above. The data set is classed as cell-based. The settings on record: Tetracycline 2 μg/ml, Gentamicin 1 μg/ml, Ampicillin 8 μg/ml; FIG. 11 (b). On the procedure: as §1
Data set [7] relates to Staphylococcus aureus. Briefly: Minimum inhibitory concentration by real-time capacitance of capacitive biosensor. The settings on record: Staphylococcus aureus 10^5 cells/ml grown 2 hours at 37° C.; 50, 5, 0.5, 0.05, 0.005 μg/ml; text prints 'this E. coli'. Format: cell-based. On the procedure: In addition, Staphylococcus aureus (10^5 cells/ml) was treated with a capacitive biosensor and grown at 37° C. for 2 hours, and then was treated with antibiotic Gentamicin (MIC: ˜ […]) 50, 5, 0.5, 0.05, and 0.005 μg/ml, respectively. The degree of susceptibility was determined based on the results of the capacitance monitored in real time, and the minimum inhibitory concentration thereof was confirmed.

For data set [8], the system named is E. coli. The experiment in a line: Identification of a microorganism: capacitance change of aptamer-fixed biosensor. The data set is classed as binding. The settings on record: about 2 hours, 37° C., FIG. 6. On the procedure: (§2) An experiment was conducted to confirm whether a microorganism could be identified using the biosensor produced according to Production Example 2.
(§3) Particularly, each well was treated and fixed with an aptamer specific to E. coli, Acinetobacterbaumannii, Staphylococcus aureus or Enterococcus faecalis, and media (a control group or a control) not containing a microorganism, E. coli, Acinetobacterbaumannii, Staphylococcus aureus or Enterococcus faecalis were treated with a sensor, and then the change in capacitance was measured after about 2 hours in an incubator at 37° C.

Another data set has as its system other microorganisms. Described as above. The data set is classed as binding. As to conditions: about 2 hours, 37° C., FIG. 6. How it is done: as §2, §3
Data set [9] relates to Staphylococcus aureus. The data set is described as above. Format: binding. As to conditions: about 2 hours, 37° C., FIG. 6. How it is done:
as §2, §3

Values after ≈ are worked out from the molar mass of the structure shown.

Regarding `O=C(O)c1cn(C2CC2)c2cc(N3CCNCC3)c(F)cc2c1=O` [Ciprofloxacin], the “change in capacitance after the addition of antibiotics” value (shortened to “change in capacitance … of antibiotics”) with E. coli [1] is “decrease in capacitance”. Moreover, the results for the “susceptibility or resistance of the bacterium to the antibiotic” value (“susceptibility or resistance” below) with E. coli [1] and in the data set on E. coli [1] (listed as ciprofloxacin) were “susceptibility” and “high”, respectively.

As for `CO/N=C(\C(=O)N[C@@H]1C(=O)N2C(C(=O)O)=C(CSc3nc(=O)c(=O)[nH]n3C)CS[C@H]12)c1csc(N)n1` [ceftriaxone], the minimum inhibitory concentration (MIC) against E. coli [2] (Escherichia coli, 100, 80, 60, 40 and 20 ng/ml, FIG. 9) came out at 0.04 µg/mL (≈ 0.0721 µM). For the same molecule, the “MIC (stated with the antibiotic)” value in the data set with E. coli [3] was around 0.03 µg/mL.

As to `CC(=O)OCC1=C(C(=O)O)N2C(=O)[C@@H](NC(=O)Cc3cccs3)[C@H]2SC1` [cephalothin], in the data set on E. coli [1], the “change in capacitance … of antibiotics” value was “increase in capacitance” and the “susceptibility or resistance” value is recorded as “resistance (tolerance)”.

For the molecule `O=C(N[C@H](CO)[C@H](O)c1ccc([N+](=O)[O-])cc1)C(Cl)Cl` [chloramphenicol], in the data set with E. coli [1], the “change in capacitance … of antibiotics” value is recorded as “increase in capacitance” and the “susceptibility or resistance” value is “resistance (tolerance)”.

As to Gentamicin, the minimum inhibitory concentration with E. coli [2] (50, 5, 0.5, 0.05, 0.005 μg/ml, FIG. 10) was 0.5 µg/mL; with Staphylococcus aureus [7], 0.5 µg/mL. For the same molecule, the MIC (stated with the antibiotic) in the data set with Staphylococcus aureus [4] and with E. coli [3] was 0.5 µg/mL throughout. Moreover, the “change in capacitance value after antibiotic treatment” value in data set [5] and in [6] was “decrease in capacitance value” in each case. Moreover, the “change in capacitance … of antibiotics” value in the data set with E. coli [1] is listed as “decrease in capacitance”. In addition, in the data set on E. coli [1], the “susceptibility or resistance” value is recorded as “susceptibility”.

B1: E. coli-specific aptamer: E. coli-specific aptamer, SEQ ID NO: 1, Genotech, Daejeon, Korea (nucleic acid)
chain: GCAATGGTACGGTACTTCCCCATGAGTGTTGTGAAATGTTGGGACACTAGGTGGCATAGAGCCGCAAAAGTGCACGCTACTTTGCTAA
modifications: DNA, backbone and methylation of C not given here; deposited on substrate, further chemistry not fully specified
With B1, the “change in capacitance on treatment with E. coli” value in the data set with E. coli [8] was “significantly increased”. Moreover, the “change in capacitance on treatment with other microorganisms” value in the data set on other microorganisms was “did not occur significantly”.

B2: Staphylococcus aureus-specific aptamer: Staphylococcal aptamer, SEQ ID NO: 3, Genotech, Daejeon, Korea (nucleic acid)
chain: GCAATGGTACGGTACTTCCTCGGCACGTTCTCAGTAGCGCTCGCTGGTCATCCCACAGCTACGTCAAAAGTGCACGCTACTTTGCTAA
modifications: DNA, backbone and methylation of C not given here; deposited on substrate, further chemistry not fully specified
Take B2: the “change in capacitance on treatment with Staphylococcus aureus” value in the data set with Staphylococcus aureus [9] is “large capacitance change”. Moreover, in the data set on other microorganisms, the “change in capacitance on treatment with other microorganisms” value is given as “did not occur significantly”.

(Values after patent US12146879B2, “Capacitive biosensor for identifying a microorganism or determining antibiotic susceptibility” (priority 2016, dated 2024).)
